# US8669249B2, “Poly (ADP-ribose) polymerase (PARP) inhibitors” (Takeda Pharmaceutical Company Limited, priority 2009, dated 2014)
# Target: T1, catalytic domain of Human PARP (Homo sapiens, UniProt P09874)
# T1 construct: The catalytic domain of Human PARP was cloned and prepared; made in house
# Assay: Biacore surface plasmon resonance affinity assay
# Type: binding
# Settings: pKD=-log10 KD, KD in mol/L; Biacore T100, 25° C.; read-out: pKD (converted)
# Experimental: Dissociation Constant (KD) from Surface Plasmon Resonance
# The catalytic domain of Human PARP was cloned and prepared as described in Kinoshita, et al. FEBS Letters (2006), 556:43-46. Purified enzyme was stored at −80° C. in 25 mM Tris(hydroxymethyl)aminomethane (‘Tris’) pH 7.4, 150 mM NaCl, 2 mM dithiothreitol (DTT) at a concentration of 6 mg/mL.
# Biacore affinity assays for test compounds were conducted on a Biacore T100 (GE Healthcare) as follows. A Series S Sensor Chip CM5 (part number BR-1006-68, GE Healthcare) was activated for amide coupling with an Amine Coupling Kit (part number BR-1000-50, GE Healthcare) as described by the manufacturer. The mobile phase buffer consisted of Biacore buffer HBS-P (part number BR-1003-68, GE Healthcare) supplemented with 1% v/v dimethylsulfoxide (DMSO), 0.5 mM Tris(2-carboxyethyl)phosphine hydrochloride (TCEP), and 5 mM MgCl2. Enzyme samples (2 μL/6 mg/mL) stored at −80° C. were diluted to 0.080 mg/mL with 10 mM 4-morpholineethanesulfonic acid (MES) pH 6.5 and then mounted on the activated Biacore CM5 chip at a flow rate of 10 μL/min for 240 seconds. […] Test compounds were diluted 9 times 2-fold serially in mobile phase buffer (listed above) at 1% v/v DMSO final to generate a concentration gradient bracketing their anticipated KDs. Biacore mounted PARP was given a 1 minute exposure (association phase) to various concentrations of test compounds to observe a steady state equilibrium or an on-rate. The exposure was followed with a dissociation phase of 5 minutes. The association and dissociation phases were at a flow rate of 50 μL/min and a temperature of 25° C.
# Parameters Rmax (response at saturation) and KD (binding constant) were calculated through a nonlinear least squares fitting of the equation to the data by use of the Biacore T100 analysis software.
# Parameter optimization was through a nonlinear least squares analysis of the association phase Response=Rmax*(1−exp(−(kon[cmpd]+koff)*t)) and dissociation phase Response=[…] by use of the Biacore T100 analysis software. The binding constant KD was calculated from the definition KD=koff/kon
# T1 sequence (P09874 788-1014 limits assumed): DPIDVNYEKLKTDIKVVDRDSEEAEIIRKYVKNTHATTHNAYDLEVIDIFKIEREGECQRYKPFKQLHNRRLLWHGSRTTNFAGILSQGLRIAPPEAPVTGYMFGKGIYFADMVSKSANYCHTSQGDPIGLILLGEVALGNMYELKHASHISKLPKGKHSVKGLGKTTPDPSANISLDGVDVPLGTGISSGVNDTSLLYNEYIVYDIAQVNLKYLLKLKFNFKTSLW
row,Kd [µM],SMILES
1,> 10,"CC1Oc2ccc(CN3CCCc4cc(O)ccc43)cc2NC1=O (stereo not shown) [Compound 84, 6-((6-Hydroxy-3,4-dihydroquinolin-1(2H)-yl)methyl)-2-methyl-2H-benzo[b][1,4]oxazin-3(4H)-one]"
2,1.26 to 10,"CC1Oc2ccc(CN(C)CCc3ccccc3)cc2NC1=O (stereo not shown) [Compound 85, 2-Methyl-6-((methyl(phenethyl)amino)methyl)-2H-benzo[b][1,4]oxazin-3(4H)-one]"
3,12.6 to 79.4,"CC1Oc2ccc(CN3CCN(CCO)CC3)cc2NC1=O (stereo not shown) [Compound 86, 6-((4-(2-Hydroxyethyl)piperazin-1-yl)methyl)-2-methyl-2H-benzo[b][1,4]oxazin-3(4H)-one]"
4,1.26 to 10,"CC1Oc2ccc(CN3CCC(CCO)CC3)cc2NC1=O (stereo not shown) [Compound 87, 6-((4-(2-Hydroxyethyl)piperidin-1-yl)methyl)-2-methyl-2H-benzo[b][1,4]oxazin-3(4H)-one]"
5,1.26 to 10,"CC1Oc2cc(CN3CC[C@H](c4ccccc4)C3)ccc2NC1=O (stereo partly drawn) [Compound 93, 2-Methyl-7-(((R)-3-phenylpyrrolidin-1-yl)methyl)-2H-benzo[b][1,4]oxazin-3(4H)-one]"
6,1.26 to 10,"CC1Oc2cc(CNc3ncc(-c4ccccc4)n3C)ccc2NC1=O (stereo not shown) [Compound 94, 2-Methyl-7-((1-methyl-5-phenyl-1H-imidazol-2-ylamino)methyl)-2H-benzo[b][1,4]oxazin-3(4H)-one]"
7,1.26 to 10,"CC1Oc2cc(CN3CCCC(c4ccccc4)C3)ccc2NC1=O (stereo not shown) [Compound 95, 2-Methyl-7-((3-phenylpiperidin-1-yl)methyl)-2H-benzo[b][1,4]oxazin-3(4H)-one]"
8,0.126 to 1,"O=C1Nc2cc(CN3CCC(c4ccccc4)CC3)ccc2OC1F (stereo not shown) [Compound 96, 2-Fluoro-6-((4-phenylpiperidin-1-yl)methyl)-2H-benzo[b][1,4]oxazin-3(4H)-one]"
9,0.126 to 1,"O=C1Nc2cc(CN3CCN(c4nc5ccccc5[nH]4)CC3)ccc2OC1F (stereo not shown) [Compound 99, 6-((4-(1H-Benzo[d]imidazol-2-yl)piperazin-1-yl)methyl)-2-fluoro-2H-benzo[b][1,4]oxazin-3(4H)-one]"
10,0.0126 to 0.1,"O=C1Nc2cc(CN3CC=C(c4ccccc4)CC3)ccc2OC1F (stereo not shown) [Compound 100, 2-Fluoro-6-((4-phenyl-5,6-dihydropyridin-1(2H)-yl)methyl)-2H-benzo[b][1,4]oxazin-3(4H)-one]"
11,1.26 to 10,"CCOC(=O)CN1CCN(Cc2ccc3c(c2)NC(=O)C(C)O3)CC1 (stereo not shown) [Compound 102, Ethyl 2-(4-((2-methyl-3-oxo-3,4-dihydro-2H-benzo[b][1,4]oxazin-6-yl)methyl)piperazin-1-yl)acetate]"
12,> 1,"CC1Oc2ccc(S(=O)(=O)N3CCC(c4ccccc4)CC3)cc2NC1=O (stereo not shown) [Compound 121, 2-Methyl-6-(4-phenylpiperidin-1-ylsulfonyl)-2H-benzo[b][1,4]oxazin-3(4H)-one]"
13,12.6 to 79.4,"O=C1COc2ccc(CCN3CCC(c4ccccc4)CC3)cc2N1 [Compound 125, 6-(2-(4-Phenylpiperidin-1-yl)ethyl)-2H-benzo[b][1,4]oxazin-3(4H)-one]"
14,1.26 to 10,"O=C1COc2ccc(CCN3CC=C(c4ccc(F)cc4)CC3)cc2N1 [Compound 126, 6-(2-(4-(4-Fluorophenyl)-5,6-dihydropyridin-1(2H)-yl)ethyl)-2H-benzo[b][1,4]oxazin-3(4H)-one]"
15,12.6 to 79.4,"O=C1COc2ccc(CCN3CCN(c4ccncc4)CC3)cc2N1 [Compound 128, 6-(2-(4-(Pyridin-4-yl)piperazin-1-yl)ethyl)-2H-benzo[b][1,4]oxazin-3(4H)-one]"
16,12.6 to 79.4,"O=C1COc2ccc(CCN3CCN(c4nc5ccccc5[nH]4)CC3)cc2N1 [Compound 129, 6-(2-(4-(1H-Benzo[d]imidazol-2-yl)piperazin-1-yl)ethyl)-2H-benzo[b][1,4]oxazin-3(4H)-one]"
17,1.26 to 10,"O=C1COc2ccc(CCN3CCC(c4ccc(F)cc4)CC3)cc2N1 [Compound 130, 6-(2-(4-(4-Fluorophenyl)piperidin-1-yl)ethyl)-2H-benzo[b][1,4]oxazin-3(4H)-one]"

# The remaining lines, values behind:
row,SMILES,Kd [µM]
1,"CCOC(=O)CN(C)Cc1ccc2c(c1)NC(=O)C(C)O2 (stereo not shown) [Compound 88, Ethyl 2-(methyl((2-methyl-3-oxo-3,4-dihydro-2H-benzo[b][1,4]oxazin-6-yl)methyl)amino)acetate]",12.6 to 79.4
2,"CC1Oc2cc(CN(C)CCc3ccccc3)ccc2NC1=O (stereo not shown) [Compound 91, 2-Methyl-7-((methyl(phenethyl)amino)methyl)-2H-benzo[b][1,4]oxazin-3(4H)-one]",1.26 to 10
3,"CC1Oc2cc(CN(C)Cc3ccccc3)ccc2NC1=O (stereo not shown) [Compound 92, 7-((Benzyl(methyl)amino)methyl)-2-methyl-2H-benzo[b][1,4]oxazin-3(4H)-one]",12.6 to 79.4
4,"O=C1COc2ccc(C(=O)O)cc2N1 [Compound 104, 3-Oxo-3,4-dihydro-2H-benzo[b][1,4]oxazine-6-carboxylic acid]",≥ 100
5,"O=C1COc2ccc(C(=O)N3CCC(c4ccccc4)CC3)cc2N1 [Compound 105, 6-(4-phenylpiperidine-1-carbonyl)-2H-benzo[b][1,4]oxazin-3(4H)-one]",≥ 100
6,"CN(C)C1CCN(C(=O)c2ccc3c(c2)NC(=O)CO3)CC1 [Compound 106, 6-(4-(Dimethylamino)piperidine-1-carbonyl)-2H-benzo[b][1,4]oxazin-3(4H)-one]",≥ 100
7,"O=C1COc2ccc(C(=O)NCc3ccccc3)cc2N1 [Compound 107, N-Benzyl-3-oxo-3,4-dihydro-2H-benzo[b][1,4]oxazine-6-carboxamide]",≥ 100
8,"O=C1COc2ccc(C(=O)NCC3CCCCC3)cc2N1 [Compound 108, N-(Cyclohexylmethyl)-3-oxo-3,4-dihydro-2H-benzo[b][1,4]oxazine-6-carboxamide]",≥ 100
9,"O=C1COc2ccc(C(=O)N3CCOCC3)cc2N1 [Compound 109, 6-(Morpholine-4-carbonyl)-2H-benzo[b][1,4]oxazin-3(4H)-one]",1.26 to 10
10,"O=C1COc2ccc(C(=O)Nc3ccccc3)cc2N1 [Compound 110, 3-Oxo-N-phenyl-3,4-dihydro-2H-benzo[b][1,4]oxazine-6-carboxamide]",≥ 100
11,"O=C1COc2ccc(C(=O)NC3CCCCC3)cc2N1 [Compound 111, N-Cyclohexyl-3-oxo-3,4-dihydro-2H-benzo[b][1,4]oxazine-6-carboxamide]",≥ 100
12,"O=C1COc2ccc(C(=O)CN3CCOCC3)cc2N1 [Compound 112, 6-(2-morpholinoacetyl)-2H-benzo[b][1,4]oxazin-3(4H)-one]",≥ 100
13,"CN(C)C1CCN(CC(=O)c2ccc3c(c2)NC(=O)CO3)CC1 [Compound 113, 6-(2-(4-(Dimethylamino)piperidin-1-yl)acetyl)-2H-benzo[b][1,4]oxazin-3(4H)-one]",≥ 100
14,"O=C1COc2ccc(C(=O)CN3CCC(c4ccccc4)CC3)cc2N1 [Compound 114, 6-(2-(4-Phenylpiperidin-1-yl)acetyl)-2H-benzo[b][1,4]oxazin-3(4H)-one]",12.6 to 79.4
15,"O=C1COc2ccc(S(=O)(=O)N3CCCCC3)cc2N1 [Compound 115, 6-(piperidin-1-ylsulfonyl)-2H-benzo[b][1,4]oxazin-3(4H)-one]",≥ 100
16,"O=C1COc2ccc(S(=O)(=O)N3CCOCC3)cc2N1 [Compound 116, 6-(Morpholinosulfonyl)-2H-benzo[b][1,4]oxazin-3(4H)-one]",12.6 to 79.4
17,"O=C1COc2ccc(S(=O)(=O)N3CCCC3)cc2N1 [Compound 117, 6-(Pyrrolidin-1-ylsulfonyl)-2H-benzo[b][1,4]oxazin-3(4H)-one]",1.26 to 10
18,"CC1Oc2ccc(S(=O)(=O)N3CCOCC3)cc2NC1=O (stereo not shown) [Compound 118, 2-Methyl-6-(morpholinosulfonyl)-2H-benzo[b][1,4]oxazin-3(4H)-one]",1.26 to 10
19,"CC1Oc2ccc(S(=O)(=O)N3CCCCC3)cc2NC1=O (stereo not shown) [Compound 119, 2-Methyl-6-(piperidin-1-ylsulfonyl)-2H-benzo[b][1,4]oxazin-3(4H)-one]",12.6 to 79.4
20,"CC1Oc2ccc(S(=O)(=O)N3CCCC3)cc2NC1=O (stereo not shown) [Compound 120, 2-Methyl-6-(pyrrolidin-1-ylsulfonyl)-2H-benzo[b][1,4]oxazin-3(4H)-one]",≥ 100
21,"CCc1ccc2c(c1)NC(=O)CO2 [Compound 122, 6-Ethyl-2H-benzo[b][1,4]oxazin-3(4H)-one]",≥ 100
22,"O=C1COc2ccc(CCN3CC=C(c4ccc(Cl)cc4)CC3)cc2N1 [Compound 127, 6-(2-(4-(4-Chlorophenyl)-5,6-dihydropyridin-1(2H)-yl)ethyl)-2H-benzo[b][1,4]oxazin-3(4H)-one]",1.26 to 10
23,"O=C1COc2ccc(CCN3CCC(c4ccc(Cl)cc4)CC3)cc2N1 [Compound 131, 6-(2-(4-(4-Chlorophenyl)piperidin-1-yl)ethyl)-2H-benzo[b][1,4]oxazin-3(4H)-one]",1.26 to 10
